Measured values reported in patent publication US20220251109A1, “OXAAZAQUINAZOLINE-7(8H)-KETONE COMPOUND, PREPARATION METHOD THEREFOR AND PHARMACEUTICAL APPLICATION THEREOF” (GENFLEET THERAPEUTICS (SHANGHAI) INC., priority 2019, published 2022).
Read-outs that look alike come from different tables or passages of the source.

Legend:
Type in all cases: cell-based, human
[1] = tested on: A549 cells (Kras G12S mutation); assay: Cell proliferation inhibition experiment, 3D model, CellTiter-Glo (A549); conditions: A549, 3D sphere plate, 5 days, 2% FBS
In short: (§1)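 Luminescent ATP read-out (CellTiter-Glo) after 5-day compound treatment gave % inhibition relative to DMSO control and medium blank, fitted four-parameter for IC50. Spheroids were formed overnight in 2% FBS medium from 800 H358 or 400 A549 cells per well; dilutions were 3.16-fold, final DMSO 0.1%.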

[2] = tested on: p-ERK in MIA PaCa2 cells (Kras G12C mutation); assay: Cell p-ERK detection experiment (HTRF) in MIA PaCa2 cells; conditions: compound 2 hours
Protocol: MIA PaCa2 was a human pancreatic cancer cell line with Kras G12C mutation, cultured in 10% FBS+2.5% Horse serum DMEM medium. The cells in the logarithmic growth phase were taken, digested with enzyme EDTA, collected, counted and 2.5E4 cells were seeded in a 96-well cell culture plate, cultured overnight. DMSO was used to prepare 1000× compound 3.16-fold gradient concentration stock solution, and medium was used to dilute 200-fold to 5× compound stock solution. On the second day after cell seeding, 5× compound stock solution was added to each cell culture well, the final concentration was 1×, and DMSO content was 0.1%. DMSO was used as an experimental control (control). After the compound was added and cultured for two hours, the remaining medium was removed. 50 ul cell lysis buffer was added to each well, mixed and incubated for 30 minutes, then 16 ul of the mixture was transferred to a 96-well plate with a non-transparent white bottom, and 16 ul cell lysis buffer was added to blank wells. After the completion of the transfer, 4 ul p-ERK HTRF antibody mixture was added to each well, incubated for 4 hours and the fluorescence value was read. The compound inhibition rate IR (%)=(RLU control-RLU compound)/(RLU control-RLU blank)×100% was calculated, Prism 8 four-parameter method was used to fit the compound's gradient dilution concentration and the corresponding cell proliferation inhibition rate, and the IC50 value was calculate.

[3] = tested on: MIA PaCa-2 cells (Kras G12C mutation); assay: Cell proliferation inhibition experiment, 3D model, CellTiter-Glo (MIA PaCa-2); conditions: MIA PaCa-2, 3D sphere plate, 5 days, read-out: MIA-PaCa2 IC50
Protocol: MIA PaCa2 was a human pancreatic cancer cell line with Kras G12C mutation, cultured in 10% FBS+2.5% Horse serum DMEM medium; A549 was a human lung adenocarcinoma cell line with Kras G12S mutation, cultured in 10% FBS F-12K medium. The cells in the logarithmic growth phase were taken, digested with enzyme EDTA, collected, counted and 200 MIA PaCa-2 or 400 A549 cells were seeded in a 384-well sphere plate respectively, cultured overnight to establish a 3D cell model. DMSO was used to prepare 1000× compound 3.16-fold gradient concentration stock solution, and medium was used to dilute 100-fold to 10× compound stock solution. On the second day after cell seeding, 10× compound stock solution was added to each cell culture well, the final concentration was 1×, and DMSO content was 0.1%. DMSO was used as an experimental control (control), medium as the blank control (blank). After the compound and cells were added and cultured for 5 days, 30 μl CellTiter-Glo working solution was added to each well, mixed and incubated for 30 minutes. After 30 minutes at room temperature, 40 μl of the mixture was transferred to a 384-well plate with a non-transparent white bottom, the luminescence chemiluminescence value was read, and the cells proliferation inhibition rate IR (%)=(RLU control-RLU compound)/(RLU control-RLU blank)×100% was calculated, XLFit four-parameter method was used to fit the compound's gradient dilution concentration and the corresponding cell proliferation inhibition rate, and the IC50 value was calculate.

[4] = tested on: NCI-H358 cells (Kras G12C mutation); assay: Cell proliferation inhibition experiment, 3D model, CellTiter-Glo (NCI-H358); conditions: NCI-H358, 3D sphere plate, 5 days, 2% FBS
In short: as §1

[5] = Homo sapiens, MIA PaCa-2, 120 h

Compound | IC50 ([1]; Homo sapiens, A549, 120 h) [nM] | IC50 ([2]; Homo sapiens, MIA PaCa-2, 2 h) [nM] | IC50 [3, 5] [nM] | IC50 [4] [nM] | IC50 [1] [nM] | IC50 [2] [nM] | IC50 [3] [nM] | IC50 ([4]; Homo sapiens, NCI-H358, 120 h) [nM]
C=CC(=O)N1CCN2c3nc(=O)n(-c4c(C)ccnc4C(C)C)c4nc(-c5c(O)cccc5F)c(Cl)c(c34)OC[C@H]2C1 (single isomer, unassigned) [Compound Z23-1] | > 10000 | 13 | 3 | 1 |  |  |  | 
C=CC(=O)N1CCN2c3nc(=O)n(-c4c(C)ccnc4C(C)C)c4nc(-c5c(O)cccc5F)c(Cl)c(c34)OC[C@@H]2C1 (single isomer, unassigned) [Compound Z24-2] |  |  |  | 3 | > 10000 | 25 | 8 | 
C=CC(=O)N1CCN2c3nc(=O)n(-c4c(C)ccnc4C(C)C)c4nc(-c5ccccc5F)c(Cl)c(c34)OC[C@@H]2C1 (single isomer, unassigned) [Compound Z46-2] |  | 20 | 8 | 3 | 5480 |  |  | 
C=CC(=O)N1CCN2c3nc(=O)n(-c4c(C)ccnc4C(C)C)c4nc(-c5cccc(F)c5F)c(Cl)c(c34)OC[C@@H]2C1 (single isomer, unassigned) [Compound Z47-1] |  |  |  | 1 | > 10000 | 15 | 3 | 
C=CC(=O)N1CCN2c3nc(=O)n(-c4c(C)ccnc4C(C)C)c4nc(-c5ccc(F)cc5F)c(Cl)c(c34)OC[C@@H]2C1 (single isomer, unassigned) [Compound Z49-1] |  |  |  | 6 | > 10000 | 64 | 10 | 
C=CC(=O)N1CCN2c3nc(=O)n(-c4c(C)ccnc4C(C)C)c4nc(-c5c(O)cccc5F)c(F)c(c34)OC[C@H]2C1 (single isomer, unassigned) [Compound Z73-2] |  |  |  | 2 | > 10000 | 20 | 5 | 
C=CC(=O)N1CCN2c3nc(=O)n(-c4c(C)ccnc4C(C)C)c4nc(-c5ccc(F)cc5F)c(Cl)c(c34)OC[C@H]2C1 (single isomer, unassigned) [Compound Z76-2] |  |  | 2 | 1 | > 10000 | 8 |  | 
C=CC(=O)N1CCN2c3nc(=O)n(-c4c(C)ccnc4C(C)C)c4nc(-c5cccc(F)c5F)c(Cl)c(c34)OC[C@H]2C1 (single isomer, unassigned) [Compound Z77-1] | > 10000 |  |  | 26 |  | 58 |  | 
C=CC(=O)N1CCN2c3nc(=O)n(-c4c(C)ccnc4C(C)C)c4nc(-c5cccc(F)c5F)c(Cl)c(c34)OC[C@H]2C1 (single isomer, unassigned) [Compound Z77-2] |  |  | 2 | 1 | > 10000 | 8 |  | 
C=CC(=O)N1CCN2c3nc(=O)n(-c4c(C)ccnc4C(C)C)c4nc(-c5cccc(Cl)c5F)c(Cl)c(c34)OC[C@@H]2C1 (single isomer, unassigned) [Compound Z82-1] |  |  |  | 23 | 3560 | 407 |  | 
C=CC(=O)N1CCN2c3nc(=O)n(-c4c(C)ccnc4C(C)C)c4nc(-c5cccc(Cl)c5F)c(Cl)c(c34)OC[C@@H]2C1 (single isomer, unassigned) [Compound Z82-2] |  |  |  | 2 | 8300 | 23 |  | 
C=CC(=O)N1CCN2c3nc(=O)n(-c4c(C)ccnc4C(C)C)c4nc(-c5c(F)cccc5OC)c(Cl)c(c34)OC[C@H]2C1 (single isomer, unassigned) [Compound Z83-1] | 12100 |  |  | 1 |  | 9 |  | 
C=CC(=O)N1CCN2c3nc(=O)n(-c4c(C)ccnc4C(C)C)c4nc(-c5c(F)cccc5OC)c(Cl)c(c34)OC[C@H]2C1 (single isomer, unassigned) [Compound Z83-2] |  |  |  | 15 | 9770 | 67 |  | 
C=CC(=O)N1CCN2c3nc(=O)n(-c4c(C)ccnc4C(C)C)c4nc(-c5ccccc5F)c(Cl)c(c34)OC[C@H]2C1 (single isomer, unassigned) [Compound Z87-1] | 10200 |  |  | 47 |  | 158 |  | 
C=CC(=O)N1CCN2c3nc(=O)n(-c4c(C)ccnc4C(C)C)c4nc(-c5ccccc5F)c(Cl)c(c34)OC[C@H]2C1 (single isomer, unassigned) [Compound Z87-2] |  |  | 2 | 1 | 5560 | 9 |  | 
C=CC(=O)N1CCN2c3nc(=O)n(-c4c(C)ncnc4C(C)C)c4nc(-c5c(O)cccc5F)c(Cl)c(c34)OC[C@H]2C1 (single isomer, unassigned) [Compound Z88-1] | > 10000 |  |  | 100 |  | 356 |  | 
C=CC(=O)N1CCN2c3nc(=O)n(-c4c(C)ncnc4C(C)C)c4nc(-c5c(O)cccc5F)c(Cl)c(c34)OC[C@H]2C1 (single isomer, unassigned) [Compound Z88-2] |  |  |  | 3 | > 10000 | 27 |  | 
C=CC(=O)N1CCN2c3nc(=O)n(-c4c(C)ncnc4C(C)C)c4nc(-c5ccccc5F)c(Cl)c(c34)OC[C@H]2C1 (single isomer, unassigned) [Compound Z95-1] | 11300 |  |  | 52 |  | 248 |  | 
C=CC(=O)N1CCN2c3nc(=O)n(-c4c(C)ncnc4C(C)C)c4nc(-c5cccc(F)c5F)c(Cl)c(c34)OC[C@H]2C1 (single isomer, unassigned) [Compound Z96-1] | > 10000 |  |  | 59 |  | 195 |  | 
C=CC(=O)N1CCN2c3nc(=O)n(-c4c(OC)ncnc4C(C)C)c4nc(-c5c(O)cccc5F)c(F)c(c34)OC[C@H]2C1 (single isomer, unassigned) [Compound Z111-1] | > 30000 | 186 |  |  |  |  |  | 34
C=CC(=O)N1CCN2c3nc(=O)n(-c4c(C)ccnc4C(C)C)c4nc(-c5c(O)cccc5F)c(C)c(c34)OC[C@H]2C1 [Compound Z72] | > 10000 | 63 |  |  |  |  |  | 5
C=CC(=O)N1CCN2c3nc(=O)n(-c4c(C)ccnc4C(C)C)c4nc(-c5c(O)cccc5F)c(C=C)c(c34)OC[C@H]2C1 [Compound Z74] | > 10000 | 128 |  |  |  |  |  | 16
C=CC(=O)N1CCN2c3nc(=O)n(-c4c(C)ccnc4C(C)C)c4nc(-c5c(F)cccc5OC)c(Cl)c(c34)OC[C@H]2C1 [Compound Z75] | > 10000 | 112 |  |  |  |  |  | 2
C=CC(=O)N1CCN2c3nc(=O)n(-c4c(C)ccnc4C(C)C)c4nc(-c5c(F)cccc5F)c(Cl)c(c34)OC[C@H]2C1 [Compound Z80] | > 10000 | 19 |  |  |  |  |  | 3
C=CC(=O)N1CCN2c3nc(=O)n(-c4c(C)ncnc4C(C)C)c4nc(-c5c(O)cccc5F)c(Cl)c(c34)OC[C@H]2C1 [Compound Z88] | > 10000 | 86 |  |  |  |  |  | 4
C=CC(=O)N1CCN2c3nc(=O)n(-c4c(C)ccnc4C(C)C)c4nc(-c5ccccc5Cl)c(Cl)c(c34)OC[C@H]2C1 [Compound Z90] | 7780 | 19 |  |  |  |  |  | 4
C=CC(=O)N1CCN2c3nc(=O)n(-c4c(C)ccnc4C(C)C)c4nc(-c5cccc(Cl)c5F)c(Cl)c(c34)OC[C@H]2C1 [Compound Z91] |  |  |  | 2 | 4220 | 16 |  | 
C=CC(=O)N1CCN2c3nc(=O)n(-c4c(C)ccnc4C(C)C)c4nc(-c5cc(O)ccc5F)c(Cl)c(c34)OC[C@H]2C1 [Compound Z118] | > 30000 | 166 |  |  |  |  |  | 19
